Source: the supplement of paper PMC10307832

Legend:
Assay in all cases: relative viability (nuclei count vs DMSO), 5 days (fraction); higher = more cells survive
[1] = tested on: NCI-H1734
Summary of the method: (§1)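 The day after seeding in 1536-well plates, lung cancer cell lines were treated by pin tool with a single drug, or with a fixed anchor-drug dose together with five library-drug doses (not always all listed) in √10 steps. After 5 days, a combined fix-and-stain solution (final 0.05% Triton X-100, 1% formaldehyde, 1 ug/ml Hoechst) was added. Nuclei counted on 4× images gave relative viability as treated counts over vehicle counts, reported as the median of duplicate plates.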

[2] = tested on: NCI-H2405
Summary of the method: as §1

[3] = tested on: NCI-H2347
Summary of the method: as §1

[4] = tested on: NCI-H322M
Summary of the method: as §1

[5] = tested on: NCI-H520
Summary of the method: as §1

[6] = tested on: NCI-H2023
Summary of the method: as §1

[7] = tested on: HCC-15
Summary of the method: as §1

[8] = tested on: NCI-H1563
Summary of the method: as §1

[9] = tested on: NCI-H1793
Summary of the method: as §1

[10] = tested on: H3255
Summary of the method: as §1

[11] = tested on: 201T
Summary of the method: as §1

[12] = tested on: COR-L23
Summary of the method: as §1

[13] = tested on: EPLC-272H
Summary of the method: as §1

[14] = tested on: LOU-NH91
Summary of the method: as §1

[15] = tested on: NCI-H3122
Summary of the method: as §1

[16] = tested on: NCI-H441
Summary of the method: as §1

[17] = tested on: PC-14
Summary of the method: as §1

[18] = tested on: UMC-11
Summary of the method: as §1

[19] = tested on: NCI-H647
Summary of the method: as §1

O=c1cc(-c2cccc3c2Sc2ccccc2S3)oc(N2CCOCC2)c1 + C[C@]1(O)C[C@@H](c2nc(-c3ccc4ccc(-c5ccccc5)nc4c3)c3c(N)nccn32)C1 [Linsitinib] (partner 1 µM)
relative viability ([1]; first compound 0.08 µM): 0.854
relative viability ([1]; first compound 0.253 µM): 1.16
relative viability ([1]; first compound 0.8 µM): 1
relative viability ([1]; first compound 2.53 µM): 0.876
relative viability ([1]; first compound 8 µM): 1.13
relative viability ([2]; first compound 0.08 µM): 0.878
relative viability ([2]; first compound 0.253 µM): 0.924
relative viability ([2]; first compound 0.8 µM): 0.85
relative viability ([2]; first compound 2.53 µM): 0.822
relative viability ([2]; first compound 8 µM): 0.768
relative viability ([3]; first compound 0.08 µM): 0.918
relative viability ([3]; first compound 0.253 µM): 1.15
relative viability ([3]; first compound 0.8 µM): 0.998
relative viability ([3]; first compound 2.53 µM): 1.02
relative viability ([3]; first compound 8 µM): 1.11
relative viability ([4]; first compound 0.08 µM): 0.868
relative viability ([4]; first compound 0.253 µM): 1.04
relative viability ([4]; first compound 0.8 µM): 0.866
relative viability ([4]; first compound 2.53 µM): 0.928
relative viability ([4]; first compound 8 µM): 0.839
relative viability ([5]; first compound 0.08 µM): 0.897
relative viability ([5]; first compound 0.253 µM): 1.06
relative viability ([5]; first compound 0.8 µM): 1.15
relative viability ([5]; first compound 2.53 µM): 0.972
relative viability ([5]; first compound 8 µM): 1.02
relative viability ([6]; first compound 0.08 µM): 0.611
relative viability ([6]; first compound 0.253 µM): 0.747
relative viability ([6]; first compound 0.8 µM): 0.723
relative viability ([6]; first compound 2.53 µM): 0.458
relative viability ([6]; first compound 8 µM): 0.416
relative viability ([7]; first compound 0.08 µM): 0.958
relative viability ([7]; first compound 0.253 µM): 0.93
relative viability ([7]; first compound 0.8 µM): 0.904
relative viability ([7]; first compound 2.53 µM): 0.844
relative viability ([7]; first compound 8 µM): 0.88
relative viability ([8]; first compound 0.08 µM): 1.19
relative viability ([8]; first compound 0.253 µM): 1.42
relative viability ([8]; first compound 0.8 µM): 1.2
relative viability ([8]; first compound 2.53 µM): 1.2
relative viability ([8]; first compound 8 µM): 1.06
relative viability ([9]; first compound 0.08 µM): 0.674
relative viability ([9]; first compound 0.253 µM): 1.19
relative viability ([9]; first compound 0.8 µM): 0.992
relative viability ([9]; first compound 2.53 µM): 0.821
relative viability ([9]; first compound 8 µM): 0.919
relative viability ([10]; first compound 0.08 µM): 1.15
relative viability ([10]; first compound 0.253 µM): 1.03
relative viability ([10]; first compound 0.8 µM): 1.02
relative viability ([10]; first compound 2.53 µM): 0.865
relative viability ([10]; first compound 8 µM): 0.983
relative viability ([11]; first compound 0.08 µM): 0.99
relative viability ([11]; first compound 0.253 µM): 1.04
relative viability ([11]; first compound 0.8 µM): 0.929
relative viability ([11]; first compound 2.53 µM): 0.974
relative viability ([11]; first compound 8 µM): 0.986
relative viability ([12]; first compound 0.08 µM): 0.958
relative viability ([12]; first compound 0.253 µM): 0.965
relative viability ([12]; first compound 0.8 µM): 1.13
relative viability ([12]; first compound 2.53 µM): 1.08
relative viability ([12]; first compound 8 µM): 1.04
relative viability ([13]; first compound 0.08 µM): 1.12
relative viability ([13]; first compound 0.253 µM): 1.31
relative viability ([13]; first compound 0.8 µM): 1.3
relative viability ([13]; first compound 2.53 µM): 1.19
relative viability ([13]; first compound 8 µM): 1.13
relative viability ([14]; first compound 0.08 µM): 0.946
relative viability ([14]; first compound 0.253 µM): 0.923
relative viability ([14]; first compound 0.8 µM): 0.845
relative viability ([14]; first compound 2.53 µM): 0.769
relative viability ([14]; first compound 8 µM): 0.893
relative viability ([15]; first compound 0.08 µM): 1.07
relative viability ([15]; first compound 0.253 µM): 1.16
relative viability ([15]; first compound 0.8 µM): 1.06
relative viability ([15]; first compound 2.53 µM): 0.99
relative viability ([15]; first compound 8 µM): 1.07
relative viability ([16]; first compound 0.08 µM): 0.549
relative viability ([16]; first compound 0.253 µM): 0.619
relative viability ([16]; first compound 0.8 µM): 0.759
relative viability ([16]; first compound 2.53 µM): 0.584
relative viability ([16]; first compound 8 µM): 0.632
relative viability ([17]; first compound 0.08 µM): 1.02
relative viability ([17]; first compound 0.253 µM): 1.07
relative viability ([17]; first compound 0.8 µM): 0.966
relative viability ([17]; first compound 2.53 µM): 0.92
relative viability ([17]; first compound 8 µM): 0.948
relative viability ([18]; first compound 0.08 µM): 1.16
relative viability ([18]; first compound 0.253 µM): 1.17
relative viability ([18]; first compound 0.8 µM): 1.18
relative viability ([18]; first compound 2.53 µM): 1.06
relative viability ([18]; first compound 8 µM): 1.23
relative viability ([19]; first compound 0.08 µM): 1.3
relative viability ([19]; first compound 0.253 µM): 1.16
relative viability ([19]; first compound 0.8 µM): 1.16
relative viability ([19]; first compound 2.53 µM): 1.03
relative viability ([19]; first compound 8 µM): 1.35
